The text below walks through data of US20100063048A1, “Remedy for angiospasm accompanying subarachnoid hemorrhage containing thrombin receptor antagonist as the active ingredient” (Eisai R&D Mangement Co., Ltd., priority 2004, published 2010).

One assay relates to thrombin. The note with it: administration to a subarachnoid hemorrhage animal model; cited from earlier work.
Another assay addresses T1, PAR1 (Oryctolagus cuniculus, UniProt G1TTP8).
T1 construct: from tissue; host or cells: rabbit basilar artery (E5555 co-injected with autologous blood into the cistern; artery rings tested ex vivo)
T1 sequence (G1TTP8 1-460): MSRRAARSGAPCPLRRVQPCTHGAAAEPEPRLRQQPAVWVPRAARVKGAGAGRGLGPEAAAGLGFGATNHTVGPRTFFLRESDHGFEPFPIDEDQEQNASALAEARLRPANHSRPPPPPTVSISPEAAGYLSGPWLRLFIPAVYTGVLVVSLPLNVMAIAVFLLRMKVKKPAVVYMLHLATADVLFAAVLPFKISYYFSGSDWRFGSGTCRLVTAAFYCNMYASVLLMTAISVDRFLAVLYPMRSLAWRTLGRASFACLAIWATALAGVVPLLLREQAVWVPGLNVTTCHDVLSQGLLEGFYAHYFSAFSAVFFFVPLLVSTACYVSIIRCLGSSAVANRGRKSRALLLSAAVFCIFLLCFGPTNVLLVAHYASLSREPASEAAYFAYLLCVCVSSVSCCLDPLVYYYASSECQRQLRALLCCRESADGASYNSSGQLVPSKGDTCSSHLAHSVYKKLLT
Kind of assay: Effect of PAR1 antagonist on contractile response of rabbit basilar arteries to thrombin (rabbit double-hemorrhage SAH model). In kind it is in vivo. How it is done: (§1) First, 2.5 ml each of autologous arterial blood was injected into the cisterna magnas twice on Days 0 and 2. Hereinafter, this group is also referred to herein as the “SAH group”. Models injected with equal amounts of saline instead of autologous arterial blood constituted the control group. On Day 7, rabbits from each group were euthanized and endotheliums were removed from the dissected basilar arteries to produce ring preparations (500 μm in width) (FIG. 2). The endothelium-removed basilar artery ring preparations produced in this example were used to perform experiments on contractile response in the following examples.
(§2) Contractile responses to thrombin were determined for the rabbit basilar arteries from the control group and the SAH group. Following contractile response induced by 118 mM K+ depolarization stimulation, the basilar artery ring preparations were stimulated with thrombin. Thrombin is an endogenous ligand of PAR1.
Contractile responses of the rabbit basilar arteries to thrombin were determined for the control group (sham surgery group), the SAH group and the SAH group coexisting with the PAR1 antagonist. Stimulation was given in the same manner as in Example 3.
In this example, the “sham surgery group (sham)” (control rabbit) refers to those obtained by injecting 3 ml saline twice into rabbit cisterns on Days 0 and 2, the “SAH group”(subarachnoid hemorrhage model) refers to those obtained by injecting 3 ml autologous blood twice into rabbit cisterns on Days 0 and 2, and the “SAH+E5555 group” (E5555-administered subarachnoid hemorrhage model) refers to those obtained by injecting 3 ml autologous blood supplemented with 600 μg E5555 twice into rabbit cisterns on Days 0 and 2.
On Day 7, the basilar arteries were removed to assess contractile responses to 118 mM K+ and 1 unit/ml thrombin.
In the same manner as Example 10, contractile responses of the rabbit basilar arteries to thrombin were determined for the control group (the sham surgery group), the SAH group and the SAH group coexisting with the PAR1 antagonist.
In this example, 3 ml each of autologous blood supplemented with 60 ng, 600 ng, 6 μg or 60 μg of E5555 was injected twice into rabbit cistern on Days 0 and 2.

Assay [1] concerns rabbit basilar arteries. Put plainly: Effect of heparinized autologous blood on increased contractile response in SAH group. The class given is in vivo. The note with it: models injected twice with heparinized autologous blood (SAH+heparin). As for the experimental part:
as §1
In order to find out the effect of heparin on this increase in the contractile response, an experiment was conducted according to the method of Example 1 using models that had been injected twice with heparinized autologous blood. Heparin forms a complex with anti-thrombin III and becomes an anticoagulant that inactivates blood coagulation factor.

The test system of assay [2] is rabbit basilar arteries. Put plainly: Contractile responses of endothelium-removed rabbit basilar artery ring preparations to thrombin / PAR1-AP. As for the experimental part:
as §1, §2
Same experiment as Example 3 was performed using PAR1-AP (PAR1-activating peptide) instead of thrombin.

The subject of assay [3] is α toxin-skinned basilar arteries. Kind of assay: Contractile responses of α toxin-skinned basilar arteries to thrombin and PAR1-AP. Also noted: species or system rabbit. As for the experimental part:
Alpha toxin is a substance that confers permeability to cell membrane. In a rabbit basilar artery that is treated with α toxin for permeabilization (hereinafter, also referred to as an “a toxin-skinned basilar artery”), contractile response associated with increase in calcium ion concentration and contractile response to GTPγS that activates G protein were measured.
Next, contractile responses of a toxin-skinned basilar arteries to thrombin and PAR1-AP were measured.

“Also recorded” adds a separate entry of the source.

For `N=C(N)c1ccc2cc(OC(=O)c3ccc(N=C(N)N)cc3)ccc2c1` [FUT-175], the angiospasm result in the assay on thrombin is given as “suppress angiospasm”.
On to `CCOc1cc2c(c(F)c1OCC)C(=N)N(CC(=O)c1cc(N3CCOCC3)c(OC)c(C(C)(C)C)c1)C2` [Formula E5555], for which the “contractile response of basilar arteries to 1 unit/ml thrombin” value on PAR1 (SAH+E5555 (6 μg) group: autologous blood supplemented with 6 μg injected twice on Days 0 and 2, vs SAH group) is listed as “smaller than that for the SAH group”; at PAR1 (SAH+E5555 (6 μg) group: autologous blood supplemented with 6 μg injected twice on Days 0 and 2, vs SAH group, listed as E5050), “significantly suppressed”; on PAR1 (SAH+E5555 (60 μg) group: autologous blood supplemented with 60 μg injected twice on Days 0 and 2, vs SAH group), “significantly suppressed”; on PAR1 (SAH+E5555 group: 3 ml autologous blood supplemented with 600 μg E5555 injected twice into cisterns on Days 0 and 2, arteries removed Day 7, n=3), “contraction by 1 unit/ml thrombin was small; also recorded: significantly suppressed the increased reactivity to thrombin”. The “dose of E5555 suppressing increased reactivity to thrombin caused by subarachnoid hemorrhage (dose-dependent)” value at PAR1 (co-administration with autologous blood, 60 ng to 60 μg tested, 1 unit/ml thrombin) was at least 60 ng.
Consider anti-thrombin III, for which, in the assay on thrombin, the angiospasm result is on record as “suppress angiospasm”.
For heparin, in the assay with rabbit basilar arteries [1], the “increasement in the contractile response to PAR1-AP” value is recorded as “decreased significantly”. Moreover, the “contractile response to thrombin” value in the assay with rabbit basilar arteries [1] (thrombin 1 unit/nil) is listed as 41.6±3.0%.
Consider thrombin, for which the “concentration from which significant continuous contraction is induced” value in the assay on rabbit basilar arteries [2] (SAH group) is given as at least 0.3 units/ml. The “reversibility of contractile response on washing” value in the assay on rabbit basilar arteries [2] (SAH group, Day 7, 1 unit/ml thrombin or 100 μM PAR1-AP) is given as “not changed by washing”. Also, the “contractile force (% of 118 mM K+-induced contraction)” value in the assay with rabbit basilar arteries [2] (SAH group, thrombin 1 unit/ml) was determined as 73.1±2.8%; with rabbit basilar arteries [2] (control group, thrombin 10 units/ml, mild temporary contraction), 21.3±1.2%. Besides, the contraction entry with rabbit basilar arteries [2] (control group, thrombin 1 unit/ml) is “did not induce contraction”. In addition, the results for the “effect on contractile response induced by calcium ion” value in assay [3] (SAH group) and in assay [3] (control group) were “significantly increased” and “had no effect”, respectively.
